Measurements from ChEMBL document CHEMBL3045846, “Experimental validation and docking studies of flavone derivatives on aldose reductase involved in diabetic retinopathy, neuropathy, and nephropathy” (Med Chem Res, 2011).
pIC50: −log10 of the molar value.

How the values were obtained:
[1] = target: Aldo-keto reductase family 1 member B1 (Bos taurus) (UniProt P16116); experiment: Inhibition of Bos taurus (bovine) aldose reductase isolated from lens using DL-glyceraldehyde as substrate at 1.8 mM by UV-Vis spectrophotometric analysis
[2] = target: Aldo-keto reductase family 1 member B1 (Homo sapiens, UniProt P15121); experiment: Inhibition of aldose reductase (unknown origin)
[3] = target: Aldo-keto reductase family 1 member B1 (Rattus norvegicus, UniProt P07943); experiment: Inhibition of Rattus norvegicus (rat) aldose reductase isolated from lens using DL-glyceraldehyde as substrate after 30 min by fluorometric analysis

| inhibition [1] | pIC50 [2] | Structure (SMILES) | also measured |
| --- | --- | --- | --- |
| 80% | – | Cc1c(Cl)cc2c(=O)cc(-c3ccccc3)oc2c1I | – |
| – | 5.72 | O=c1cc(-c2ccc(O)c(O)c2)oc2cc(O)c([C@@H]3O[C@H](CO)[C@@H](O)[C@H](O)[C@H]3O)c(O)c12 [ISOORIENTIN] | – |
| – | – | O=c1cc(-c2ccc(O)cc2)oc2c([C@@H]3O[C@H](CO)[C@@H](O)[C@H](O)[C@H]3O)c(O)cc(O)c12 [VITEXIN] | pIC50 [3]: 5.69 |
| – | 6.85 | O=C(O)/C=C/c1ccc(O)cc1 [COUMARIC ACID] | – |
| 60% | – | O=c1cc(-c2ccccc2Cl)oc2ccccc12 | – |
| 80% | – | Cc1c(Cl)cc2c(=O)cc(-c3ccc(Cl)cc3Cl)oc2c1I | – |
| 80% | – | O=c1cc(-c2ccc(Cl)cc2Cl)oc2c(I)cc(Cl)cc12 | – |
| 70% | – | O=c1cc(-c2ccccc2)oc2c(I)cc(Cl)cc12 | – |

| Structure (SMILES) | inhibition [1] | pIC50 [2] | also measured |
| --- | --- | --- | --- |
| COc1cc(-c2cc(=O)c3c(O)cc(O)cc3o2)cc(OC)c1O [TRICIN] | – | 5.69 | – |
